# Data reported in paper PMC10958501, “4-Oxypiperidine Ethers as Multiple Targeting Ligands at Histamine H3 Receptors and Cholinesterases” (ACS Chemical Neuroscience, 2024).
# Where two headings read alike, the source gives them in different places.
# What was measured:
# H3R = tested on: H3R; parameters: method as in PMID 29671795, PMID 23957330; details: cited from earlier work
# [1] = parameters: method as in PMID 29671795; details: in vivo; cited from earlier work
# gpH3R = target: T1, gpH3R (Cavia porcellus, UniProt Q9JI35); test: Ex vivo gpH3R screening on isolated guinea pig ileum electrically stimulated to contraction
# T1 construct: isolated guinea pig ileum electrically stimulated to contraction; from tissue; host or cells: distal ileum of male guinea pigs
# T1 sequence (Q9JI35 whole entry): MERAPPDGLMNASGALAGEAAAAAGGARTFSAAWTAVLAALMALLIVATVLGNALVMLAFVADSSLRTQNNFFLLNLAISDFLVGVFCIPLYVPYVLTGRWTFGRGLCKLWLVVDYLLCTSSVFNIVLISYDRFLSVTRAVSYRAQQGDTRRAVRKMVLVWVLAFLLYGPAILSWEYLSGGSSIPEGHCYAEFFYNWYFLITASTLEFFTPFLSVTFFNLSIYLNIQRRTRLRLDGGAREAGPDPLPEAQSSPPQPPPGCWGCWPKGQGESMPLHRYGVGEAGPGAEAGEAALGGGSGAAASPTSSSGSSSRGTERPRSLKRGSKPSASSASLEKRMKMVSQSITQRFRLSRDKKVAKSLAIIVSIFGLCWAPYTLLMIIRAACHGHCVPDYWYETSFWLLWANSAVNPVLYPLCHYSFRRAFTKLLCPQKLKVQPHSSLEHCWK
# Experimental: All newly synthesized compounds were evaluated ex vivo as H3R antagonists/inverse agonists on guinea pig ileum (gpH3R) stimulated electrically for contraction.[47]
# The compounds were tested against H3R by an ex vivo assay using isolated guinea pig ileum electrically stimulated to contraction, according to Vollinga et al.[47] The pA2-values were calculated according to Arunlakshana and Schild.[59] The radioligand-displacement assay was performed in membrane fractions of HEK-293 cells stably expressing hH3R. Cell cultivation and membrane preparation were performed according to Kottke et al.[48] The Ki values were calculated from the IC50 values using the Cheng–Prusoff equation.[60] The statistical calculations were performed on −log(Ki). […] The inhibitory activities toward AChE and BuChE of novel ADS compounds were assessed in a spectrophotometric Ellman’s assay using electric eel AChE (eeAChE) and equine BuChE (eqBuChE).[57] Intracellular cAMP accumulation was measured with a homogeneous TR-FRET immunoassay using the LANCE Ultra cAMP kit (PerkinElmer) and HEK293 cells stably expressing the human histamine H3 receptor.[61] A more detailed description of the biological methods is presented in the Supporting Information.
# 3. Pharmacological assay results.
# 3.1. Ex vivo assay for histamine H 3R receptor antagonists on guinea pig ileum.
# Male guinea pigs, weighing 300-400 g were euthanized by a blow to the neck. Following this, a 20-30 cm length of the distal ileum, apart from the terminal 5 cm was rapidly removed and […]
# USA) (1·10 -6 mol/L). The intraluminal content was rinsed and the isolated intestine was cut into 1.5-2 cm segments. The preparations were mounted between two platinum electrodes […]
# and indomethacin (3·10 -7 mol/L).
# CO2 mixture and maintained at 37 °C under a constant load of 1.0 g (Hugo Sachs Hebel-Messvorsatz (Tl-2)/HF-modem; Hugo Sachs Elektronik, Hugstetten, Germany) connected to a pen recorder (Kipp & Zonen BD41, Delft, Holland). During an equilibration period of 60 min, the Krebs buffer was changed every 10 min. The preparations were then continuously stimulated at 15-20 V at a frequency of 0.1 Hz for a duration of 0.5 ms, with rectangular-wave electrical pulses (Grass Stimulator S-88; Grass Instruments Co., Quincy, Massachusetts, […]
# USA). […] Five minutes before (R)-(−)-α- […]
# methylhistamine (RAMH) (Toronto Research Chemicals Inc., North York, Canada), administration, pyrilamine (Sigma-Aldrich, St. Louis, MO, USA) (1·10-5 mol/L concentration in organ bath) was added. The first cumulative concentration-response curve was determined […]
# second to fourth curve was measured against increasing antagonist concentration (incubation time 20 min). The pA2-values were calculated according to Arunlakshana and Schild 5.
# Statistical analysis was carried out with the Student’s t-test. In all tests, a p<0.05 was […]
# considered statistically significant. The pA2 values were compared with the affinity of thioperamide (Sigma-Aldrich, St. Louis, MO, USA). […]
# eeAChE = target: T2, eeAChE (Electrophorus electricus, UniProt O42275); test: biochemical; details: for inhibition at 10 µM: read-out: eeAChE % inh. (10μM) ± SD; for IC50: read-out: eeAChE IC50 (μM) ± sem
# T2 construct: purchased Sigma–Aldrich (Steinheim, Germany)
# T2 sequence (O42275 24-633): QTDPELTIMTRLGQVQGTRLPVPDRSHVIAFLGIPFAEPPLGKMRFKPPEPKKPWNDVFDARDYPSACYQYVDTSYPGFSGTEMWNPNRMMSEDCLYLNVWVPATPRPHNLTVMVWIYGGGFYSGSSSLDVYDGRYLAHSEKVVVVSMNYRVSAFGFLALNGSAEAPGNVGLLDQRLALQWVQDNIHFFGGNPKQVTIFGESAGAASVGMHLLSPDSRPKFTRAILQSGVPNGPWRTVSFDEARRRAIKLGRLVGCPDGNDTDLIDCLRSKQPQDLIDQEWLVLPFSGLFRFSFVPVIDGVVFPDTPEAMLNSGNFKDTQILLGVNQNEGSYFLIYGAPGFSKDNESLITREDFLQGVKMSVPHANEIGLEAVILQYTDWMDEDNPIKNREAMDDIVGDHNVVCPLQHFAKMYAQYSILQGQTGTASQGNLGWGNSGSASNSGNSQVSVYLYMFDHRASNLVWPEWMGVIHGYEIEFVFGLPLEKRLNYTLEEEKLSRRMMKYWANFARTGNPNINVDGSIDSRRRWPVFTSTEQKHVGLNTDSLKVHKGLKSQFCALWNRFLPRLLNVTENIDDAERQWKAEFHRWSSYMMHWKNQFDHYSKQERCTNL
# eqBuChE = eqBuChE (Equus caballus, UniProt P81908); test: biochemical; details: for inhibition at 10 µM: read-out: eqBuChE % inh. (10 μM) ± SD; for IC50: read-out: eqBuChE IC50 [μM] ± sem
# Chain of eqBuChE (P81908 whole entry): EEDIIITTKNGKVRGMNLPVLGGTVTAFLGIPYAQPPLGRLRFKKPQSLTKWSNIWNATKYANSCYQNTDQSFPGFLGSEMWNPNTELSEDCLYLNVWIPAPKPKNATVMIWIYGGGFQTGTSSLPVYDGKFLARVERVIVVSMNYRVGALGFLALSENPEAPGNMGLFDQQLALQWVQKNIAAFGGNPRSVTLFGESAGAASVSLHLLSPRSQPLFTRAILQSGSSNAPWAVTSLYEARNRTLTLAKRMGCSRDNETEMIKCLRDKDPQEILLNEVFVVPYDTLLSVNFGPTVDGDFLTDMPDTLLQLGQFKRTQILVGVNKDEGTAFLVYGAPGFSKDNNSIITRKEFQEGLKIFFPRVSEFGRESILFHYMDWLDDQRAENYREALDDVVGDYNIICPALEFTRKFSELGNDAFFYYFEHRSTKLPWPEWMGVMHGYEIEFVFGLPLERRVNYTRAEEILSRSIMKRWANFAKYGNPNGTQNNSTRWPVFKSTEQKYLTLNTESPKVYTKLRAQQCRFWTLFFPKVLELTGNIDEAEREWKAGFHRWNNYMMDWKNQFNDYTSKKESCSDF
# hH3R [2] = target: T3, hH3R (Homo sapiens, UniProt Q9Y5N1); test: hH3R radioligand displacement assay in membrane fractions of HEK-293 cells; type: binding; details: [3H]Nα-methylhistamine displacement, HEK-293 membranes; 95% CI in brackets
# T3 construct: expressed in transfected cells; membrane fractions
# T3 sequence (Q9Y5N1 whole entry): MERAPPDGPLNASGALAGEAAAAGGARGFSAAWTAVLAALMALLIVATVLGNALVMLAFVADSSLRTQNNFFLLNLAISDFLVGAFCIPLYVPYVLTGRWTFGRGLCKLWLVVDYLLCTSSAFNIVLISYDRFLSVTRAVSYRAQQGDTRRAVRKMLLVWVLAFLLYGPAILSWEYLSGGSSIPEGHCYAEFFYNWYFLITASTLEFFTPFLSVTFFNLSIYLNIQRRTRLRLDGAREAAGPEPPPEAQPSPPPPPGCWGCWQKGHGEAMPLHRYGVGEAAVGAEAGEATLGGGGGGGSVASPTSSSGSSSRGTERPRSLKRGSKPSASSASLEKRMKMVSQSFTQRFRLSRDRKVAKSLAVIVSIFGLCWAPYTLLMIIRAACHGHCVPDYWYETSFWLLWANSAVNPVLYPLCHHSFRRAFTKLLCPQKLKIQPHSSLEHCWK
# Experimental: The compounds were tested against H3R by an ex vivo assay using isolated guinea pig ileum electrically stimulated to contraction, according to Vollinga et al.[47] The pA2-values were calculated according to Arunlakshana and Schild.[59] The radioligand-displacement assay was performed in membrane fractions of HEK-293 cells stably expressing hH3R. Cell cultivation and membrane preparation were performed according to Kottke et al.[48] The Ki values were calculated from the IC50 values using the Cheng–Prusoff equation.[60] The statistical calculations were performed on −log(Ki). The mean values and 95% confidence intervals were transformed to nanomolar concentrations. The inhibitory activities toward AChE and BuChE of novel ADS compounds were assessed in a spectrophotometric Ellman’s assay using electric eel AChE (eeAChE) and equine BuChE (eqBuChE).[57] Intracellular cAMP accumulation was measured with a homogeneous TR-FRET immunoassay using the LANCE Ultra cAMP kit (PerkinElmer) and HEK293 cells stably expressing the human histamine H3 receptor.[61] A more detailed description of the biological methods is presented in the Supporting Information. […]
# considered statistically significant. The pA2 values were compared with the affinity of thioperamide (Sigma-Aldrich, St. Louis, MO, USA).
# 3.2. hH 3R radioligand displacement binding assay.
# The radioligand displacement binding assay was performed in membrane fractions of HEK-293 cells stably expressing hH3R. Cell cultivation and membrane preparation was performed according to Kottke et al 6. For the radioligand displacement assay, radioactively labeled […]
# assay volume was set to 200 µL. The compounds were tested in several appropriate concentrations between 100 µM and 0.1 nM. Pipetting was partly done by Freedom Evo® (Tecan). Pitolisant was used to determine non-specific binding at a concentration of 10 µM.
# The membrane fraction (20 µg/well), test compounds, and radiolabeled ligand were incubated for 90 minutes at 25 °C while shaking. The bound radioligand was separated from the free radioligand by filtration through GF/B filters pre-treated with 0.3 % (m/v) polyethyleneimine using a cell harvester. Radioactivity was determined by liquid scintillation counting using a MicroBeta® Trilux (Perkin Elmer). The data was obtained in duplicates in at least three independent experiments. Non-specific binding was subtracted from the raw data to calculate specific binding values. The evaluation was performed with GraphPad Prism 6.1 (San Diego, CA, USA) using non-linear regression (one-site competition with a logarithmic scale). The Ki values were calculated from the IC50 values using the Cheng-Prusoff equation 7. The statistical calculations were performed on –log(Ki). […]
# hH3R [3] = target: T3, hH3R; details: cited from earlier work
# AChE = details: cited from earlier work
# BuChE = tested on: BuChE; parameters: method as in PMID 16599255; details: cited from earlier work
# [4] = isolated guinea pig ileum, against (R)-(−)-α-methylhistamine, mean of at least three experiments, read-out: gpH3R pA2 ± sem (converted)
Compound,Kb (gpH3R),inhibition at 10 µM (eeAChE),inhibition at 10 µM (eqBuChE),IC50 (eqBuChE),also measured
"CCCN(C)CCCCCOC1CCN(Cc2cc3ccccc3o2)CC1 [ADS003, 5-((1-(benzofuran-2-ylmethyl)piperidin-4-yl)oxy)-N-methyl-N-propylpentan-1-amine]",–,–,–,–,pA2 (H3R): 8.47; blood–brain barrier crossing [1]: ability to cross the blood–brain barrier
"CCCN(C)CCCCCOC1CCN(Cc2ccccc2)CC1 [ADS009, 5-((1-benzylpiperidin-4-yl)oxy)-N-methyl-N-propylpentan-1-amine]",–,–,–,–,pA2 (H3R): 7.79
"CCCN(C)c1ccc(OC2CCN(Cc3ccccc3)CC2)cc1 [ADS021, 4-((1-Benzylpiperidin-4-yl)oxy)-N-methyl-N-propylaniline]",> 100000 nM,33.4 ± 1.1%,95.88 ± 0.2%,0.559 ± 0.125 µM,–
"CCCN(C)Cc1ccc(COC2CCN(Cc3ccccc3)CC2)cc1 [ADS022, N-(4-(((1-Benzylpiperidin-4-yl)oxy)methyl)benzyl)-N-methylpropan-1-amine]",38 nM,61.6 ± 2.8%,49.4 ± 1.9%,–,Ki (hH3R [2]): 77.1 nM; IC50 (eeAChE): 6.89 ± 0.271 µM
"CCCN(C)c1ccc(OC2CCN(Cc3cc4ccccc4o3)CC2)cc1 [ADS023, 4-((1-(Benzofuran-2-ylmethyl)piperidin-4-yl)oxy)-N-methyl-N-propylaniline]",–,40.3 ± 2.8%,43.2 ± 2.1%,–,Kb (gpH3R; [4]): > 100000 nM
"CCCN(C)Cc1ccc(COC2CCN(Cc3cc4ccccc4o3)CC2)cc1 [ADS024, N-(4-(((1-(Benzofuran-2-ylmethyl)piperidin-4-yl)oxy)methyl)benzyl)-N-methylpropan-1-amine]",26.9 nM,36.2 ± 3.6%,32.2 ± 2.6%,–,Ki (hH3R [2]): 144 nM
"CCCN(C)Cc1cccc(COC2CCN(Cc3ccccc3)CC2)c1 [ADS025, N-(3-(((1-Benzylpiperidin-4-yl)oxy)methyl)benzyl)-N-methylpropan-1-amine]",129 nM,53.7 ± 1.9%,63.9 ± 1.7%,6.05 ± 0.16 µM,IC50 (eeAChE): 9.94 ± 0.64 µM
"CCCN(C)Cc1cccc(COC2CCN(Cc3cc4ccccc4o3)CC2)c1 [ADS026, N-(3-(((1-(Benzofuran-2-ylmethyl)piperidin-4-yl)oxy)methyl)benzyl)-N-methylpropan-1-amine]",–,5.5 ± 0.6%,55.9 ± 2%,–,Kb (gpH3R; [4]): 93.3 nM
"CCCN(C)Cc1ccccc1COC1CCN(Cc2ccccc2)CC1 [ADS027, N-(2-(((1-Benzylpiperidin-4-yl)oxy)methyl)benzyl)-N-methylpropan-1-amine]",151 nM,4.8 ± 0.3%,64.6 ± 0.9%,4.31 ± 0.202 µM,–
"CCCN(C)Cc1ccccc1COC1CCN(Cc2cc3ccccc3o2)CC1 [ADS028, N-(2-(((1-(Benzofuran-2-ylmethyl)piperidin-4-yl)oxy)methyl)benzyl)-N-methylpropan-1-amine]",126 nM,2.3 ± 0.3%,79.6 ± 0.4%,2.65 ± 0.055 µM,–
"CCCN(C)Cc1ccc(-c2ccc(COC3CCN(Cc4ccccc4)CC3)cc2)cc1 [ADS029, N-((4′-(((1-Benzylpiperidin-4-yl)oxy)methyl)-[1,1′-biphenyl]-4-yl)methyl)-N-methylpropan-1-amine]",61.7 nM,69 ± 0.5%,90.8 ± 0.3%,1.4 ± 0.055 µM,IC50 (eeAChE): 3.71 ± 0.134 µM
"CCCN(C)Cc1ccc(-c2ccc(COC3CCN(Cc4cc5ccccc5o4)CC3)cc2)cc1 [ADS030, N-((4′-(((1-(Benzofuran-2-ylmethyl)piperidin-4-yl)oxy)methyl)-[1,1′-biphenyl]-4-yl)methyl)-N-methylpropan-1-amine]",257 nM,31.2 ± 0.5%,83.1 ± 0.4%,1.75 ± 0.077 µM,–
"CCCN(C)Cc1ccc2cc(COC3CCN(Cc4cc5ccccc5o4)CC3)ccc2c1 [ADS032, N-((6-(((1-(Benzofuran-2-ylmethyl)piperidin-4-yl)oxy)methyl)naphthalen-2-yl)methyl)-N-methylpropan-1-amine]",87.1 nM,28.1 ± 3.9%,90.3 ± 0.1%,1.64 ± 0.074 µM,Ki (hH3R [2]): 44.1 nM
c1ccc2c(NCc3ccc(CCCN4CCCCC4)cc3)c3c(nc2c1)CCCC3 [III],–,–,–,–,Ki (hH3R [3]): 0.3 nM; IC50 (AChE): 2.6 nM; IC50 (BuChE): 8.8 nM
c1cc(-c2ccc(CN3CCCCC3)cc2)ccc1CCN1CCCCC1 [I],–,–,–,–,IC50 (AChE): 1100 nM
S=C(NC1CCCCC1)N1CCC(c2cnc[nH]2)CC1 [Thioperamide],–,–,–,–,pA2 (H3R): 8.67
